Experimental data taken from patent US9562085B2, “Antimicrobial peptide” (priority 2013, dated 2017).

Tested on: MRSA LUH14616
Experiment: In vitro killing assay on mid-log phase bacteria, MRSA LUH14616
Format: cell-based, Staphylococcus aureus
Conditions: MRSA LUH14616 in PBS, 1 hour at 37° C.; 90% Inhibitory Concentration, linear regression
Excerpt: The clinical isolate of methicillin-resistant Staphylococcus aureus (MRSA), LUH14616 was kindly provided by Dr. S. Croes, Maastricht University Medical Center, Maastricht, Netherlands (see S.B.M.C. Croes, Microbiol. 2009; 9:229. doi: 10.1186/1471-2180-9-229) and that of mupirocine-resistant MRSA LUH15051 was a gift from Dr. M.E.O.C. Heck (Laboratory for Infectious Diseases and Screening, National Institute for Public Health and Environment, RIVM, Bilthoven, Netherlands).
Bacteria were stored at -80° C. until use. Inoculi of mid-log phase bacteria were prepared by incubating isolated MRSA colonies from blood agar plates in Tryptic Soy Broth (TSB) medium (Becton Dickinson, Le Pont de Clax, France) for 2.5 hours and then diluted to the concentration needed.
For the in vitro killing assay on mid-log phase bacteria, MRSA LUH14616 and MRSA LUH15051 were resuspended to a concentration of 1×10^6 bacteria/ml in PBS. Subsequently, 200 μl was added to a concentration range of peptides LL-37, P60.4Ac (OP-145) and P10 that were lyophilized in advance. Subsequently, the bacteria-peptide mixture was incubated for 1 hour at 37° C. To establish the killing capacity of these peptides, the suspensions were serially diluted and plated onto DST agar plates to measure viable CFU counts. IC90, IC99 and IC99.9 values are calculated by linear regression analysis.

Substance | IC90 [nM]
Ac-IGKEFKRIVERIKRFLRELVRPLR-NH2 (N-terminus and C-terminus assumed) [Peptide P60.4Ac, reference compound] | 750

Tested on: S. aureus JAR
Experiment: not given
Format: cell-based
Conditions: JAR, 2 h
Description: S. aureus JAR is described in Campoccia et al. (Int. J. Artif. Organs, 2008 September; 31(9):841-7).
For the in vitro killing assay with P10 variants, S. aureus JAR ([…] CFU/ml) were incubated for 2 hours at 37° C. with various concentrations of the peptides in PBS or in PBS/human plasma (1/1, v/v). […] The LC99.9 is the average value of two independent experiments.

Substance | LC99.9 (μM) (50% plasma) [µM] | LC99.9 (μM) (PBS) [µM]
Ac-LAREYKKIVEKLKRWLRQVLRQLR-NH2 [Peptide 1302-52, JLAREYKKIVEKLKRWLRQVLRQLRB] | 76.8 | 1.6
Ac-LAREYKKIVEKLKRWLRQVLRT-NH2 [Peptide 1302-57, JLAREYKKIVEKLKRWLRQVLRTB] | 51.2 | 1.6
Ac-LAREYKKIVEKLKRWLRQVLRTLH-NH2 [Peptide 1302-55, JLAREYKKIVEKLKRWLRQVLRTLHB] | 102.4 | 1.2
Ac-LAREYKKIVEKLKRWLRQVVRTLR-NH2 [Peptide 1302-48, JLAREYKKIVEKLKRWLRQVVRTLRB] | 76.8 | 1.2
Ac-LAREYKKIVEKLKRWLRSVLRTLR-NH2 [Peptide 1302-44, JLAREYKKIVEKLKRWLRSVLRTLRB] | 76.8 | 1.6
Ac-LAREYKKIVEKLKRWLRTVLRTLR-NH2 [Peptide 1302-45, JLAREYKKIVEKLKRWLRTVLRTLRB] | 76.8 | 1.6
Ac-LAREYKKIVEKVKRWLRQVLRTLR-NH2 [Peptide 1302-34, JLAREYKKIVEKVKRWLRQVLRTLRB] | 102.4 | 3.2
Ac-LAREYKKIVERLKRWLRQVLRTLR-NH2 [Peptide 1302-31, JLAREYKKIVERLKRWLRQVLRTLRB] | 102.4 | 3.2
Ac-LAREYKKIVPKLKRWLRQVPRTLR-NH2 [Peptide 1302-15, JLAREYKKIVPKLKRWLRQVPRTLRB] | 76.8 | >3.2
Ac-LAREYKKPVEKLKRWLPQVLRTLR-NH2 [Peptide 1302-16, JLAREYKKPVEKLKRWLPQVLRTLRB] | 102.4 | >3.2
Ac-LAREYKPIVEKLKRWPRQVLRTLR-NH2 [Peptide 1302-13, JLAREYKPIVEKLKRWPRQVLRTLRB] | >102.4 | >3.2
Ac-LAREYKRIVEKLKRWLRQVLRTLR-NH2 [Peptide 1302-29, JLAREYKRIVEKLKRWLRQVLRTLRB] | 102.4 | 1.6
Ac-LAREYPKIVEKLKRWLRPVLRTLR-NH2 [Peptide 1302-14, JLAREYPKIVEKLKRWLRPVLRTLRB] | 102.4 | 3.2
Ac-LAREYRKIVEKLKRWLRQVLRTLR-NH2 [Peptide 1302-27, JLAREYRKIVEKLKRWLRQVLRTLRB] | 76.8 | 0.8
Ac-LARQYKKIVEKLKRWLRQVLRTLR-NH2 [Peptide 1302-25, JLARQYKKIVEKLKRWLRQVLRTLRB] | 51.2 | 1.2
Ac-LLREYKKIVEKLKRWLRQVLRTLR-NH2 [Peptide 1302-20, JLLREYKKIVEKLKRWLRQVLRTLRB] | 102.4 | 1.6
Ac-LQREYKKIVEKLKRWLRQVLRTLR-NH2 [Peptide 1302-22, JLQREYKKIVEKLKRWLRQVLRTLRB] | 76.8 | 1.6
Ac-LVREYKKIVEKLKRWLRQVLRTLR-NH2 [Peptide 1302-21, JLVREYKKIVEKLKRWLRQVLRTLRB] | 76.8 | 1.2
Ac-REYKKIVEKLKRWLRQVLRT-NH2 [Peptide 1302-58, JREYKKIVEKLKRWLRQVLRTB] | 76.8 | 1.6
Ac-REYKKIVEKLKRWLRQVLRTLR-NH2 [Peptide 1302-56, JREYKKIVEKLKRWLRQVLRTLRB] | 51.2 | 1.6
Ac-VAREYKKIVEKLKRWLRQVLRTLR-NH2 [Peptide 1302-18, JVAREYKKIVEKLKRWLRQVLRTLRB] | 76.8 | 1.6
Ac-YKKIVEKLKRWLRQVL-NH2 [Peptide 1302-62, JYKKIVEKLKRWLRQVLB] | 76.8 | 1.6
Ac-YKKIVEKLKRWLRQVLRTLR-NH2 [Peptide 1302-59, JYKKIVEKLKRWLRQVLRTLRB] | 51.2 | 1.6
